Experimental data as given in article PMC8212695, “Discovery of a Highly Conserved Peptide in the Iron Transporter Melanotransferrin that Traverses an Intact Blood Brain Barrier and Localizes in Neural Cells” (Frontiers in Neuroscience, 2021).
Like-named read-outs stand apart in the source and are kept apart here. Where no end group is shown, it is not given here.

Assays:
[1] = test system: in vitro BBB model: primary bovine brain capillary endothelial cells supported by primary rat glial cells
[2] = test system: in vitro BBB model: primary bovine brain capillary endothelial cells supported by primary rat glial cells; assay: In vitro BBB model transcytosis of trypsin-digested sMTf, peptides identified by mass spectrometry; conditions: for Ablum 120:Area: MS peak area in abluminal compartment at 120 min; for Ablum 120:Area / Lum 120:Area: trypsin-digested sMTf 0.25 mg/mL luminal, Ringer-HEPES, 37°C, 2 h, LC-MS, one peptide may have several lines; for Lum 120:Area: MS peak area in luminal compartment at 120 min; for presence of MTf fragments on the abluminal side: after 2 h, SDS-PAGE and/or mass spectrometry
[3] = test system: in vitro BBB model: primary bovine brain capillary endothelial cells supported by primary rat glial cells; remark: listed apart in the source
[4] = test system: neurons, astrocytes, microglia, lysosomes, endosomes in the brain; assay: Cellular and subcellular localization of MTfp in mouse brain, 3D confocal microscopy; assay type: in vivo; conditions: mice injected IV with Cy5-MTfp
Description: Three sets of 3D fluorescence microscopy experiments were performed. The first set measured the BBB penetration of Cy5 tagged MTfp using DeltaVision Elite integrated with Huygens Deconvolution Software (GE, United States). As an extension of this, a set of sections were prepared to assess the cellular localization of the Cy-5 tagged MTfp in the CNS. The second set of experiments addressed the localization of Cy-5 tagged MTfp in various cell types and subcellular objects using the Leica SP8 X system (Leica, Germany).
The brains were removed and fixed with 4% paraformaldehyde overnight and then transferred into PBS+0.01% sodium azide and stored at 4°C. The brains were embedded in 4% agarose, fixed onto the microtome stage and sectioned (20 μm) at 4°C. The sections were stained with DAPI and then mounted on microscopic slides. Glass coverslips were mounted on the sections using Prolong Gold antifade reagent. In another experiment, to assess the localization of the peptide in the CNS, brains from mice injected with either PBS or Cy5-MTfp followed by FITC- tomato lectin. The brains were collected and processed as stated above. These were then incubated with antibodies targeted against neurons (NeuN; ab177487), microglia (TMEM; ab209064), astrocytes (GFAP; ab7260), lysosomes (LAMP-1; sc-19992-AF546) and endosomes (EEA-1; sc-137130), secondary antibody staining was done for unconjugated primary antibodies with Alexa fluor 680 goat anti-mouse IgG (cat# A21058), Alexa fluor 680 goat anti-rabbit IgG (Cat #A21076) and then counter-stained with DAPI, cover slipped, imaged and quantitatively analyzed to determine the extent of localization of various cell types and subcellular objects with MTfp.
The microscopy experiments, which quantitatively assessed the cellular location of MTfp within the brain, were performed using Leica SP8 X system (Leica, Germany). 3D confocal images were acquired with a Leica AOBS SP8 laser scanning confocal microscope (Leica, Heidelberg, Germany) using a high-resolution Leica 63X/1.4 or 40X/1.3 Plan-Apochromat oil immersion objective lens. Excitations were performed using either diode or tunable white light laser sources. All images and spectral data (except DAPI) were generated using the highly sensitive HyD detectors (with gated option) in de-scanned mode. The backscattered emission signals from the sample were delivered through the tunable filter (AOBS), the detection pinhole, spectral dispersion prism, and finally to the PMT/HyD detectors. For 3D image data set acquisition, the excitation beam was first focused at the maximum signal intensity focal position within the brain tissue sample and the appropriate HyD gain levels were then selected to obtain the pixel intensities within range of 0–255 (8-bit images) using a color gradient function. The beginning and end of the 3D stack were set based on the signal level degradation. Series of 2D images for a selected 3D stack volume were then acquired with 1,024 × 1,024 pixels. […]
For each tissue volume reported here, z-section images were compiled and finally the 3D image restoration was performed using VOLOCITY software (Perkin Elmar, United Kingdom). The volume estimation was performed on the 3D image data sets recorded from four or more cortical area of brain tissue samples. Algorithms were developed to automate the quantification of the test materials and blood capillaries, and to accurately quantify test materials localized in blood capillaries vs. brain parenchyma. […]

[5] = stable isotopic LC-MS; ref Singh et al., 2020; cited from earlier work
From the text: In the context of the present study, the variability in conformation, glycosylation, anchoring and metal binding, presents potential complications to the use of sMTf as a robust, reproducible, clinically useful drug delivery vehicle. Therefore, to improve upon the utility of sMTf as a drug-delivery vector, we fragmented the protein in order to identify the minimally active region that retains the capability of carrying molecular cargo across the BBB. We report the identification of a 12 amino acid peptide (MTfp; […]), derived from melanotransferrin protein, that retains the ability cr ...

[6] = In vivo BBB penetration of Cy5-tagged peptides, 3D deconvolution fluorescence microscopy; conditions: mice, IV, Cy5 conjugates
[7] = mouse, in vivo, iv

| Substance | Abluminal vs. luminal [1] [%] | Abluminal vs. total [1] [%] | Ablum 120:Area [2] | Lum 120:Area [2] | presence of MTf fragments on the abluminal side [2] | Ablum 120:Area [3] | Lum 120:Area [3] | other results |
| --- | --- | --- | --- | --- | --- | --- | --- | --- |
| ADTDGGLIFR | 2.16 | 1.60 | 1.59E+10 | 1.11E+10 | identified in the abluminal medium | – | – | – |
| ADTDGGLIFRLLNEGQR | – | – | – | – | – | 0.00E+00 | 3.69E+07 | – |
| ADVTEWR [ADVTEWR] | 1.32 | 0.82 | 1.05E+10 | 9.31E+08 | identified in the abluminal medium | – | – | – |
| AVSDYFGGSCVPGAGETSYSESLCR | – | – | – | – | – | 5.49E+08 | 5.51E+09 | – |
| DSSHAFTLDELR [MTfp] | 2.41 | 1.90 | 5.87E+09 | 1.03E+10 | identified in the abluminal medium | – | – | MTfp found in the early endosomes ([4]; EEA-1 marker): approximately 20%; MTfp found in the lysosomes ([4]; LAMP-1 marker): 40%; astrocytes expressing GFAP co-labeled with MTfp ([4]; fluorescence volume fraction): 70%; microglia expressing TMEM co-labeled with MTfp ([4]; fluorescence volume fraction): 80%; neurons expressing NeuN co-labeled with MTfp ([4]; fluorescence volume fraction): 90%; initial rate of entry into the brain [5]: 2.1 nM/min; BBB penetration efficiency compared with RVGp [6]: statistically similar |
| DSSHAFTLDELRGK | – | – | – | – | – | 1.99E+07 | 0.00E+00 | – |
| DSSHAFTLDELRYC [MTfp-Cy5] | – | – | – | – | – | – | – | VT ABVP (Volume of Parenchymal Test Article normalized to Parenchymal Volume), Mean [7]: 1.0 8E-03; fractional fluorescence in the brain parenchyma compared to mice injected with PBS or revMTfp-Cy5 [7]: Approximately two |
| EHGLKPVVGEVYDQEVGTSYYAVAVVRR | – | – | – | – | – | 1.70E+07 | 0.00E+00 | – |
| GDSSGEGVCDKSPLER | – | – | – | – | – | 1.93E+09 | 5.08E+08 | – |
| IQAEQVDAVTLSGEDIYTAGK | – | – | – | – | – | 0.00E+00 | 3.48E+06 | – |
| LCRGDSSGEGVCDK | – | – | – | – | – | 2.64E+05 | 2.17E+05 | – |
| NYPSSLCALCVGDEQGR | – | – | – | – | – | 7.34E+07 | 6.15E+08 | – |
| RLEDLTFAHSSDYC [revMTfp-Cy5, reference compound] | – | – | – | – | – | – | – | VT ABVP (Volume of Parenchymal Test Article normalized to Parenchymal Volume), Mean [7]: 6.6 7E-04 |
| TVGWNVPVGYLVESGR | – | – | – | – | – | 0.00E+00 | 9.38E+07 | – |
| VPAHAVVVR | 2.49 | 1.52 | 1.24E+08 | 3.48E+07 | identified in the abluminal medium | – | – | – |
| YYDYSGAFR | 0.13 | 0.05 | 6.41E+09 | 1.00E+09 | identified in the abluminal medium | – | – | – |
